The values that follow come from patent US11098041B2 (Merck Patent GmbH, priority 2014, dated 2021).

What is called IC50 is the concentration needed to halve the response being measured.

The target of test [1] is BTK C481S (His-TEV-hsBTK(328-659)(C481S)) (Homo sapiens (Human), UniProt Q06187, C481S). The experiment in a line: Assay B: microfluidic off-chip mobility shift assay against BTK C481S enzyme. The test is classed as biochemical. The note with it: BTK C481S mutant. As to the method: The mechanics of the assay platform are described by the vendor (PerkinElmer, Hopkinton, Mass.) on their website at the following URL: http://caliperls.com.
5 uL of enzyme buffer and 7.5 uL of ATP/KinKDR peptide substrate mix were added to Matrix (#4315) 384-well, sterile, flat-bottom polypropylene plates (Thermo Fisher Scientific, Hudson, N.H.) with 125 nL of serially diluted compounds prepared in 100% DMSO, and incubated for 90 min. at 25° C. Following the incubation period, reactions were terminated by adding 65 uL quench buffer consisting of 100 mM HEPES, pH 7.5, 0.015% Brij-35 (30%), 0.277% Coating Reagent #3 (PerkinElmer, Mountain View, Calif.), 5% DMSO. Terminated reactions were monitored at −2 PSI, −3000 V/−700 Volts in a LabChip 3000 plate reader from Caliper Life Sciences, a PerkinElmer Company (Hopkinton, Mass.), and the activity was quantified by laser-induced fluorescence measuring the charge/mass difference between substrate and product resulting from peptide phosphorylation. IC50 and efficacy were determined by plotting log [Inhibitor] vs. % Activity in GeneData Screener (Basel, Switzerland).

A further test concerns the target full-length human BTK (Homo sapiens (Human), UniProt Q06187). The experiment in a line: Assay A: microfluidic off-chip mobility shift assay against BTK enzyme. The class given is biochemical. The method, then:
Assay A: Microfluidic Off-Chip Mobility Shift Assay Protocol for Potency Assessment Against BTK Enzyme
The protocol below describes microfluidic, off-chip mobility shift kinase assay to measure inherent potency of compounds against BTK enzyme.
5 uL of enzyme buffer and 7.5 uL of ATP/kinKDR peptide substrate mix were added to Matrix (#115304) 384-well, sterile, polypropylene plates (Thermo Fisher Scientific, Hudson, N.H.) with 125 nL of serially diluted compounds prepared in 100% DMSO, and incubated for 90 min. at 27° C. Following the incubation period, reactions were stopped by adding 60 uL stop buffer consisting of 100 mM HEPES, pH 7.5, 0.015% Brij-35 (30%), 0.277% Coating Reagent #3 (Caliper Life Sciences, Mountain View, Calif.), 5% DMSO. Stopped reactions were monitored at −2 PSI, −3000 V/−700 V in a LabChip 3000 plate reader from Caliper Life Sciences, a PerkinElmer Company (Hopkinton, Mass.), and the activity was measured by off-chip mobility shift assay measuring the charge/mass difference between substrate and product resulting from peptide phosphorilation. IC50 and efficacy were determined by plotting log [Inhibitor] vs. % Activity in GeneData Screener (Basel. Switzerland).

Sequence of full-length human BTK (Q06187 whole entry): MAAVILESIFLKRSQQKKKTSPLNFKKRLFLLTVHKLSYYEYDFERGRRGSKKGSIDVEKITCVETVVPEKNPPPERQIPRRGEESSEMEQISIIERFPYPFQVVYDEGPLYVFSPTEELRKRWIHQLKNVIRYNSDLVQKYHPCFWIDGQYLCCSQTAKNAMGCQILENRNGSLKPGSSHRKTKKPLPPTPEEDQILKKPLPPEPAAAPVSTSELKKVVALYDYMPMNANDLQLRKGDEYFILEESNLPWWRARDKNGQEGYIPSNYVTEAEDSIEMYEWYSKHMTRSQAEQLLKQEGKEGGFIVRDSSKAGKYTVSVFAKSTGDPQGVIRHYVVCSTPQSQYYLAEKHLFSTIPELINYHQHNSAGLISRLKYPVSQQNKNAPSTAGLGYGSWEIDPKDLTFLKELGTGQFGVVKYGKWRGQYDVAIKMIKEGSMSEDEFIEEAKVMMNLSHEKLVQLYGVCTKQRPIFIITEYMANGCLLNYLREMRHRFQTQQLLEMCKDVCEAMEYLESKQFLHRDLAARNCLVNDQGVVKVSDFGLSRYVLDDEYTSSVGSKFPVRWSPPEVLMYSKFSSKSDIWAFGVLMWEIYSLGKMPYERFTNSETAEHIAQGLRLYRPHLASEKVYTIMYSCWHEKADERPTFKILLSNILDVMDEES
Sequence of BTK C481S (His-TEV-hsBTK(328-659)(C481S)) (Q06187 328-659 C481S): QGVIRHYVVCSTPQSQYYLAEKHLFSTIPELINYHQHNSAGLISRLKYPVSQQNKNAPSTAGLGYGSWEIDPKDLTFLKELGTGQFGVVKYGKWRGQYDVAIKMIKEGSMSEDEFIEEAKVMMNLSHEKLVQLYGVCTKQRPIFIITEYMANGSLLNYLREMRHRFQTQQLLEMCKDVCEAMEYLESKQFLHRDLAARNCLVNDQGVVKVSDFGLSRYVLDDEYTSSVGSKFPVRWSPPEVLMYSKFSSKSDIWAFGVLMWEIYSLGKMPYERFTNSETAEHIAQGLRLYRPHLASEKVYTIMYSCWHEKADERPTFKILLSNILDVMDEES

With “5-tert-Butyl-[1,3,4]oxadiazole-2-carboxylic acid 2-fluoro-4-{2-[1-(2-morpholin-4-yl-ethyl)-1H-pyrazol-4-yl]-3H-imidazo[4,5-b]pyridin-7-yl}-benzylamide [Example 120]”, the IC50 (in test [1]; at full-length human BTK) was less than 100 nM each time.
`COc1cccc(-c2nc3c(-c4cc(F)c(CNC(=O)c5noc(C(C)(C)C)n5)cc4C)ccnc3[nH]2)c1` [Example 78, 5-tert-Butyl-N-([2-fluoro-4-[2-(3-methoxyphenyl)-3H-imidazo[4,5-b]pyridin-7-yl]-5-methylphenyl]methyl)-1,2,4-oxadiazole-3-carboxamide]: the IC50 (in test [1]; on full-length human BTK) was less than 100 nM in each case.
As to `Cn1cc(-c2nc3c(-c4cnc(CNC(=O)c5nnc(C(C)(C)C)o5)c(F)c4)ccnc3[nH]2)cn1` [Example 13, 5-tert-Butyl-[1,3,4]oxadiazole-2-carboxylic acid {3-fluoro-5-[2-(1-methyl-1H-pyrazol-4-yl)-3H-imidazo[4,5-b]pyridin-7-yl]-pyridin-2-ylmethyl}-amide], the IC50 is less than 100 nM in test [1] and 100 to 1000 nM at full-length human BTK.
Regarding `Cn1cc(-c2nc3c(-c4cccc(NC(=O)c5noc(C6CC6)n5)c4CO)ccnc3[nH]2)cn1` [Example 44, 5-Cyclopropyl-N-[2-(hydroxymethyl)-3-[2-(1-methyl-1H-pyrazol-4-yl)-3H-imidazo[4,5-b]pyridin-7-yl]phenyl]-1,2,4-oxadiazole-3-carboxamide], the IC50 was less than 100 nM in test [1] and 1000 to 5000 nM at full-length human BTK.
Take `CC(C)(C)c1noc(C(=O)NCc2ccc(-c3ccnc4[nH]c(-c5cccnc5)nc34)cc2F)n1` [Example 149, 3-(tert-butyl)-N-(2-fluoro-4-(2-(pyridin-3-yl)-3H-imidazo[4,5-b]pyridin-7-yl)benzyl)-1,2,4-oxadiazole-5-carboxamide]: the IC50 (in test [1]; at full-length human BTK) was less than 100 nM throughout.
Take `Cn1ccc(-c2nc3c(-c4ccc(CNC(=O)c5nnc(C(C)(C)C)o5)c(F)c4)ccnc3[nH]2)cc1=O` [Example 141, 5-tert-Butyl-[1,3,4]oxadiazole-2-carboxylic acid 2-fluoro-4-[2-(1-methyl-2-oxo-1,2-dihydro-pyridin-4-yl)-3H-imidazo[4,5-b]pyridin-7-yl]-benzylamide]: the IC50 (in test [1]; at full-length human BTK) was less than 100 nM each time.
With `Cc1c(CNC(=O)c2noc(C(C)(C)C)n2)cccc1-c1ccnc2[nH]c(-c3cnn(C)c3)nc12` [Example 88, 5-tert-Butyl-N-([2-methyl-3-[2-(1-methyl-1H-pyrazol-4-yl)-3H-imidazo[4,5-b]pyridin-7-yl]phenyl]methyl)-1,2,4-oxadiazole-3-carboxamide], the results for the IC50 (in test [1]; on full-length human BTK) were more than 5000 nM and 1000 to 5000 nM, respectively.
Turning to `Cn1cc(-c2nc3c(-c4ccc(CNC(=O)c5cnc(C6CC6)o5)c(F)c4)ccnc3[nH]2)cn1` [Example 18], the half-inhibitory concentration (IC50) (in test [1]; at full-length human BTK) was less than 100 nM in each case.
For the compound `Cn1cc(-c2nc3c(-c4ccc(Cn5ncc6cc(C(C)(C)C)cc(F)c6c5=O)c(F)c4)ccnc3[nH]2)cn1` [Example 99, 6-tert-Butyl-8-fluoro-2-{2-fluoro-4-[2-(1-methyl-1H-pyrazol-4-yl)-3H-imidazo[4,5-b]pyridin-7-yl]-benzyl}-2H-phthalazin-1-one], the half-maximal inhibitory concentration (IC50) (in test [1]; at full-length human BTK) was less than 100 nM in each case.
On to `COc1cccnc1-c1nc2c(-c3ccc(CNC(=O)c4nc(C(C)(C)C)no4)c(F)c3)ccnc2[nH]1` [Example 152, 3-(tert-butyl)-N-(2-fluoro-4-(2-(3-methoxypyridin-2-yl)-3H-imidazo[4,5-b]pyridin-7-yl)benzyl)-1,2,4-oxadiazole-5-carboxamide], for which the IC50 (in test [1]; on full-length human BTK) was less than 100 nM each time.
With `Cn1cc(-c2nc3c(-c4ccc(CNC(=O)c5csc(C(F)(F)F)n5)c(F)c4)ccnc3[nH]2)cn1` [Example 22, 2-Trifluoromethyl-thiazole-4-carboxylic acid 2-fluoro-4-[2-(1-methyl-1H-pyrazol-4-yl)-3H-imidazo[4,5-b]pyridin-7-yl]-benzylamide], the IC50 (in test [1]; on full-length human BTK) was 100 to 1000 nM in each case.
Regarding `CC(C)(C)c1nc(C(=O)Nc2cccc(-c3ccnc4[nH]c(-c5ccc(C(=O)N6CCOCC6)cc5)nc34)c2CO)no1` [Example 45, 5-tert-Butyl-N-[2-(hydroxymethyl)-3-(2-[4-[(morpholin-4-yl)carbonyl]phenyl]-3H-imidazo[4,5-b]pyridin-7-yl)phenyl]-1,2,4-oxadiazole-3-carboxamide], the IC50 (in test [1]; at full-length human BTK) was less than 100 nM in each case.
With `C[C@@H]1CN(c2ccc(-c3nc4c(-c5cccc(NC(=O)c6noc(C(C)(C)C)n6)c5CO)ccnc4[nH]3)cc2)C[C@H](C)O1` [Example 47, 5-tert-Butyl-N-[3-(2-[4-[(2R,6S)-2,6-dimethylmorpholin-4-yl]phenyl]-3H-imidazo[4,5-b]pyridin-7-yl)-2-(hydroxymethyl)phenyl]-1,2,4-oxadiazole-3-carboxamide], the figures for the IC50 (in test [1]; at full-length human BTK) were less than 100 nM and 100 to 1000 nM, respectively.
Consider `CC(C)(C)c1nc(C(=O)Nc2cccc(-c3ccnc4[nH]c(-c5ccc(N6CCC(F)(F)CC6)cc5)nc34)c2CO)no1` [Example 48, 5-tert-Butyl-N-(3-[2-[4-(4,4-difluoropiperidin-1-yl)phenyl]-3H-imidazo[4,5-b]pyridin-7-yl]-2-(hydroxymethyl)phenyl)-1,2,4-oxadiazole-3-carboxamide], for which the figures for the IC50 (in test [1]; at full-length human BTK) were less than 100 nM and 100 to 1000 nM, respectively.
For the compound `CC(C)(C)c1noc(C(=O)NCc2ccc(-c3ccnc4[nH]c(-c5ccncc5)nc34)cc2F)n1` [Example 150, 3-(tert-butyl)-N-(2-fluoro-4-(2-(pyridin-4-yl)-3H-imidazo[4,5-b]pyridin-7-yl)benzyl)-1,2,4-oxadiazole-5-carboxamide], the IC50 (in test [1]; on full-length human BTK) was less than 100 nM in each case.
Consider `Cn1cc(-c2nc3c(-c4ccc(C(C)(C)NC(=O)C(N)=O)c(F)c4)ccnc3[nH]2)cn1` [Example 102, N-(1-{2-Fluoro-4-[2-(1-methyl-1H-pyrazol-4-yl)-3H-imidazo[4,5-b]pyridin-7-yl]-phenyl}-1-methyl-ethyl)-oxalamide], for which the concentration for half-maximal inhibition (IC50) (in test [1]; at full-length human BTK) was 1000 to 5000 nM throughout.
In the case of `Cc1cc(-c2ccnc3[nH]c(-c4cnn(C)c4)nc23)ccc1CNC(=O)C(N)=O` [Example 101, N-{2-Methyl-4-[2-(1-methyl-1H-pyrazol-4-yl)-3H-imidazo[4,5-b]pyridin-7-yl]-benzyl}-oxalamide], the 50% inhibitory concentration (IC50) (in test [1]; at full-length human BTK) was 1000 to 5000 nM in each case.
For `Cn1cc(-c2nc3c(-c4ccc(CNC(=O)C5CC(OC(C)(C)C)C5)c(F)c4)ccnc3[nH]2)cn1` (stereo not drawn) [Example 60, 3-(tert-Butoxy)-N-([2-fluoro-4-[2-(1-methyl-1H-pyrazol-4-yl)-3H-imidazo[4,5-b]pyridin-7-yl]phenyl]methyl)cyclobutane-1-carboxamide], the concentration for half-maximal inhibition (IC50) (in test [1]; at full-length human BTK) was 100 to 1000 nM throughout.
For the compound `COc1ncccc1-c1nc2c(-c3ccc(CNC(=O)c4nc(C(C)(C)C)no4)c(F)c3)ccnc2[nH]1` [Example 151, 3-(tert-butyl)-N-(2-fluoro-4-(2-(2-methoxypyridin-3-yl)-3H-imidazo[4,5-b]pyridin-7-yl)benzyl)-1,2,4-oxadiazole-5-carboxamide], the 50% inhibitory concentration (IC50) (in test [1]; at full-length human BTK) was less than 100 nM throughout.
Take `Cn1cc(-c2nc3c(-c4cccc(NC(=O)c5noc(C(C)(C)C)n5)c4CO)ccnc3[nH]2)cn1` [Example 43, 5-tert-Butyl-N-[2-(hydroxymethyl)-3-[2-(1-methyl-1H-pyrazol-4-yl)-3H-imidazo[4,5-b]pyridin-7-yl]phenyl]-1,2,4-oxadiazole-3-carboxamide]: the IC50 (in test [1]; at full-length human BTK) was 100 to 1000 nM in each case.
As for `Cn1cc(-c2nc3c(-c4ccc(CNCc5cccnc5)c(F)c4)ccnc3[nH]2)cn1` [Example 173, N-(2-fluoro-4-(2-(1-methyl-1H-pyrazol-4-yl)-3H-imidazo[4,5-b]pyridin-7-yl)benzyl)-1-(pyridin-3-yl)methanamine], the concentration for half-maximal inhibition (IC50) at full-length human BTK is more than 5000 nM.
Take `COc1ccc(-c2nc3c(-c4ccc(CNC(=O)c5nnc(C(C)(C)C)o5)c(F)c4)ccnc3[nH]2)nc1` [Example 158, 5-tert-butyl-N-([2-fluoro-4-[2-(5-methoxypyridin-2-yl)-3H-imidazo[4,5-b]pyridin-7-yl]phenyl]methyl)-1,3,4-oxadiazole-2-carboxamide]: the IC50 at full-length human BTK was less than 100 nM.
